Here are results for one molecule from patent US20230055961A1, “PENTAFLUOROBENZENESULFONAMIDE DERIVATIVES AND USES THEREOF” (Dunad Therapeutics Ltd., priority 2019, published 2023).

Test [1] has as its target T1, BTK (Homo sapiens, UniProt Q06187). The test is described as follows: In vitro BTK inhibition, biochemical IC50 (no preincubation). As to conditions: Table 7. The method, then: IC50 Values (nM) for the Inhibition of BTK Activity
In vitro BTK and JAK3 inhibition studies are shown in Table 7 and Table 8 (no preincubation).
Target sequence in this assay (Q06187 whole entry, species assumed): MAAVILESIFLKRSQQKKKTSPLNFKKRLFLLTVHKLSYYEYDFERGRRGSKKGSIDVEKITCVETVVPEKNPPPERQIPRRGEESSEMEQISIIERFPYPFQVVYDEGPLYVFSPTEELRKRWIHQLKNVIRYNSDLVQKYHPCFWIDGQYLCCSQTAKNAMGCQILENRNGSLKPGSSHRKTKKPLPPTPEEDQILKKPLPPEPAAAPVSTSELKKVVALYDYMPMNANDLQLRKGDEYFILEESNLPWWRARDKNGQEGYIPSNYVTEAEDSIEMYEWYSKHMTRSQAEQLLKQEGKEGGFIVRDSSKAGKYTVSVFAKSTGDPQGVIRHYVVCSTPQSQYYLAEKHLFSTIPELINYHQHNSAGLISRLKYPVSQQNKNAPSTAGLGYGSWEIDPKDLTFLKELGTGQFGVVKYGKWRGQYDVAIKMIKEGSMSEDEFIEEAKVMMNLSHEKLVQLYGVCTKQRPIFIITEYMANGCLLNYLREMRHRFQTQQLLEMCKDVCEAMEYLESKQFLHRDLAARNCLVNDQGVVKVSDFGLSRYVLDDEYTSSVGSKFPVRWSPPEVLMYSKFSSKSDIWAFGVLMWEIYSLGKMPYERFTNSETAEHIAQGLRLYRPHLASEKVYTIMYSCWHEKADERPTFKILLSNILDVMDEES

In test [2] the target is T1, BTK. Description: Enzyme kinetic analysis of BTK inhibition (time-dependent inhibition). It counts as biochemical. The conditions noted are these: 0.1 nM BTK, 500 μM ATP, 60-700 nM compound. The source says:
One of ordinary skill in the art will recognize that this is consistent with the irreversible inhibition of BTK by Compound 5-1.
Target sequence in this assay (Q06187 whole entry, species assumed): as above

Test [3] has as its system RL cells. Description: IC50 of Ibrutinib analogs against human cancer cells, RL cells (Table 14). The test is classed as cell-based. The conditions noted are these: for IC50: Homo sapiens, RL, read-out: RL (IC50).
Description: 1×10^4 cells (NHF cells)/well are plated in 96-well assay plates in culture medium. […] After 24 hrs, test compounds and vehicle controls are added to appropriate wells so the final volume is 100p in each well. The cells are cultured for the desired test exposure period (72 hrs) at 37° C. and 5% CO2. The assay plates are removed from 37° C. incubator and 20 μl/well of CellTiter-Blue® Reagent is added. The plates are incubated using standard cell culture conditions for 1-4 hours and the plates are shaken for 10 seconds and record fluorescence at 560/590 nm. […] Therapeutic index=(IC50 human fibroblasts/IC50 […] )
In test [4] the test system is normal pooled human fibroblasts. Description: IC50 of Ibrutinib analogs against normal human cells, pooled human fibroblasts (Table 14). It counts as cell-based. As to conditions: Fibroblast, Table 14, normal human cell line. The method, then: Anti-cancer efficacy of exemplary compounds of this application is assessed in vitro in different cancer cell lines. Cell viability is examined following treatment at various concentration of inhibitor (0.097656-50 μM) using a cell Titer-Blue cell viability assay. 1×10^4 cells (NHF cells)/well are plated in 96-well assay plates in culture medium. All cells are grown in DMEM, IMDM and RPMI-1640 supplemented with 10% FBS. After 24 hrs, test compounds and vehicle controls are added to appropriate wells so the final volume is […] in each well. The cells are cultured for the desired test exposure period (72 hrs) at 37° C. and 5% CO2. The assay plates are removed from 37° C. incubator and 20 μl/well of CellTiter-Blue® Reagent is added. The plates are incubated using standard cell culture conditions for 1-4 hours and the plates are shaken for 10 seconds and record fluorescence at 560/590 nm.
Therapeutic index=(IC50 human fibroblasts/IC50 RLcells)

Test [5] concerns the target T2, BMX (Homo sapiens, UniProt P51813).
T2 sequence (P51813 1-675): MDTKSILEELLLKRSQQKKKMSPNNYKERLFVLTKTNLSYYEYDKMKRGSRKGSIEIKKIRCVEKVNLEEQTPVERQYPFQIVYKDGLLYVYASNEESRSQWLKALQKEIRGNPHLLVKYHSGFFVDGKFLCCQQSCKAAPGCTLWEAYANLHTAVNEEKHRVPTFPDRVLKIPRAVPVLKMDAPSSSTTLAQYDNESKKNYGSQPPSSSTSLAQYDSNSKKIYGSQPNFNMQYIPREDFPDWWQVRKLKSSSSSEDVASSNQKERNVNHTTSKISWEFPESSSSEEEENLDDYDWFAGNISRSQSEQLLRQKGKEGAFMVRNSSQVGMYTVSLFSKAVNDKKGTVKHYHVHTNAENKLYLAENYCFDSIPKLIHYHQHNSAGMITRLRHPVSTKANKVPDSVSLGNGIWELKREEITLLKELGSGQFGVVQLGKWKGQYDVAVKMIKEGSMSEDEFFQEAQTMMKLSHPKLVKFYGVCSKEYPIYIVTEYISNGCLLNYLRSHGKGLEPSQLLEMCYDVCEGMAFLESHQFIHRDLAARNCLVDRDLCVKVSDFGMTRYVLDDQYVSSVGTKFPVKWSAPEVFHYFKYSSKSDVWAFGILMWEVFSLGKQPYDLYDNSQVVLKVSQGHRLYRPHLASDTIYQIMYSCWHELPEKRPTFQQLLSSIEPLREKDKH
Description: In vitro kinase inhibition studies (Table 9), BMX. The test is classed as biochemical.

Test [6] addresses FGFR1 (Homo sapiens, UniProt P11362). Description: In vitro kinase inhibition studies (Table 9), FGFR1. It counts as biochemical.
For test [7], the target named is FGFR4 (Homo sapiens, UniProt P22455). The test is described as follows: In vitro kinase inhibition studies (Table 9), FGFR4. It counts as biochemical.
Test [8] concerns the target BLK (Homo sapiens, UniProt P51451). Description: In vitro kinase inhibition studies (Table 13), BLK. It counts as biochemical.
Test [9] concerns the target T2, BMX. The test is described as follows: In vitro kinase inhibition studies (Table 13), BMX. It counts as biochemical.
Test [10] has as its target FGFR2 (Homo sapiens, UniProt P21802). The test is described as follows: In vitro kinase inhibition studies (Table 13), FGFR2. It counts as biochemical.
The target of test [11] is MAP2K7 (Homo sapiens, UniProt O14733). The test is described as follows: In vitro kinase inhibition studies (Table 13), MAP2K7. It counts as biochemical.
Test [12] concerns the target CSK (Homo sapiens, UniProt P41240). Description: In vitro kinase inhibition studies (Table 13), CSK. It counts as biochemical.
In test [13] the target is EGFR (Homo sapiens, UniProt P00533). Description: In vitro kinase inhibition studies (Table 13), EGFR. The test is classed as biochemical.
Test [14] concerns the target EGFR L850R (Homo sapiens, UniProt P00533). Description: In vitro kinase inhibition studies (Table 13), EGFR L850R. It counts as biochemical.
Test [15] deals with EGFR L850R, T790M (Homo sapiens, UniProt P00533, T790M, form not given). Description: In vitro kinase inhibition studies (Table 13), EGFR L850R, T790M. The test is classed as biochemical.
Test [16] addresses ERBB2 (Homo sapiens, UniProt P04626). The test is described as follows: In vitro kinase inhibition studies (Table 13), ERBB2. It counts as biochemical.
The target of test [17] is ERBB4 (Homo sapiens, UniProt Q15303). Description: In vitro kinase inhibition studies (Table 13), ERBB4. The test is classed as biochemical.
Test [18] concerns the target FGFR. The test is described as follows: In vitro kinase inhibition studies (Table 13), FGFR. It counts as biochemical.
The target of test [19] is SRC (Homo sapiens, UniProt P12931). Description: In vitro kinase inhibition studies (Table 13), SRC. The test is classed as biochemical.
In test [20] the target is T1, BTK. Description: Covalent modification of BTK by mass spectrometry of the intact protein. The test is classed as binding. Also on record: His-tagged BTK kinase domain was prepared from pET-28b(+)-BTK (402-655) vector. The conditions noted are these: 10 μM BTK, 50 μM compound, 2 hours at 30° C.; expected 596 Da. How it is done: After incubation of 10 μM BTK in the presence of 50 μM Compound 5-1 for 2 hours at 30° C., the mass of the modified protein was determined by mass spectrometry. […] After incubation with Compound 5-1, the intensity of this had decreased by an order of magnitude, and the most intense peak is consistent with the protein whose mass was increased by 595 Da, corresponding closely to the expected mass of the inhibitor Compound 5-1 (less one fluoride from inhibitor, and one proton from protein, 596 Da).

Like-named read-outs stand apart in the source and are kept apart here.

Sequence of ERBB4 (Q15303 26-1308, species assumed): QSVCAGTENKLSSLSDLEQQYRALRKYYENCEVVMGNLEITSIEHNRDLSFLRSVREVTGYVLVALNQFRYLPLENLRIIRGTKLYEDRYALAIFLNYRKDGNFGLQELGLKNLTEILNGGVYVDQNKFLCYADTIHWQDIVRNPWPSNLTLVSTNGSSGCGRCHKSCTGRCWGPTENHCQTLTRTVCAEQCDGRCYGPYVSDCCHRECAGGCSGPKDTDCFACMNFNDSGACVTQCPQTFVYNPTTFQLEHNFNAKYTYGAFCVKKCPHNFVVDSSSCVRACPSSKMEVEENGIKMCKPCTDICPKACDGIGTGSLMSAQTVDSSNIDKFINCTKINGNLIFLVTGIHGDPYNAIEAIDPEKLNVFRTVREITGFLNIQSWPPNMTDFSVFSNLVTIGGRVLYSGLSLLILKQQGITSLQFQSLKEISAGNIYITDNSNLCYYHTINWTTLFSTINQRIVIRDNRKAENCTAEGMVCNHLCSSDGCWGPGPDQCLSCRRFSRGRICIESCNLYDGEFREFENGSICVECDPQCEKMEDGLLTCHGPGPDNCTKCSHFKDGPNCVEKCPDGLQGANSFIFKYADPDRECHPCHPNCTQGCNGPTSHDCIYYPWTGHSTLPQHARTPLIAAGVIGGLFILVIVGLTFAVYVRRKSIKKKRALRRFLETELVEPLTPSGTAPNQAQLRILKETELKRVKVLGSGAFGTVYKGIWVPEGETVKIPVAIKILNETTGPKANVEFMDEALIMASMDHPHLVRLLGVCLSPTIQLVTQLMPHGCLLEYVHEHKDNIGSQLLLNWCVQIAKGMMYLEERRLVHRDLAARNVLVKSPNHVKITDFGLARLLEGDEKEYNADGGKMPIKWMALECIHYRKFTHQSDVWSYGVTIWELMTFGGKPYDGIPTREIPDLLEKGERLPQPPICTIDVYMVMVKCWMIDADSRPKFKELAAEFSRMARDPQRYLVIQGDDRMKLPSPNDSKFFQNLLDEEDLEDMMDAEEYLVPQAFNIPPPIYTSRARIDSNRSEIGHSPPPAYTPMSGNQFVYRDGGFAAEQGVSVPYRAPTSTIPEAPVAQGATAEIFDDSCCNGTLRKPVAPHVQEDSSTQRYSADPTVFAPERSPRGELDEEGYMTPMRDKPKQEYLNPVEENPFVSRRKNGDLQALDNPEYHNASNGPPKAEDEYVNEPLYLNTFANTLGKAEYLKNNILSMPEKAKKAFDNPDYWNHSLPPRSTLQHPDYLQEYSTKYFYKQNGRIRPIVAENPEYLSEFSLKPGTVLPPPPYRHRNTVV
Sequence of CSK (P41240 whole entry, species assumed): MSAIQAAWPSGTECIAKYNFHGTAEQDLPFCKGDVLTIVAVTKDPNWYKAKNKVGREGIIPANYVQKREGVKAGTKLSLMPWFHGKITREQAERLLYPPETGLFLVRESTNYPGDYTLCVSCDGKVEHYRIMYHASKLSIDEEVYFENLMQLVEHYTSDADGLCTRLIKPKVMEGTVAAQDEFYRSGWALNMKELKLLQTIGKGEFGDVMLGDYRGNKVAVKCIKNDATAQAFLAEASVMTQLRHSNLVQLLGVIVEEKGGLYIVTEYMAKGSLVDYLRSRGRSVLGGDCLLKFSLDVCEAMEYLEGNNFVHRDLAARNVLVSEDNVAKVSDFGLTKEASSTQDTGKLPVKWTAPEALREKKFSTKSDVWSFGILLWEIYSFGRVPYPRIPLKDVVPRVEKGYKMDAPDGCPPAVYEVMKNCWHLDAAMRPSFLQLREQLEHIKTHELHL
Sequence of EGFR L850R (P00533 whole entry L858R, form open): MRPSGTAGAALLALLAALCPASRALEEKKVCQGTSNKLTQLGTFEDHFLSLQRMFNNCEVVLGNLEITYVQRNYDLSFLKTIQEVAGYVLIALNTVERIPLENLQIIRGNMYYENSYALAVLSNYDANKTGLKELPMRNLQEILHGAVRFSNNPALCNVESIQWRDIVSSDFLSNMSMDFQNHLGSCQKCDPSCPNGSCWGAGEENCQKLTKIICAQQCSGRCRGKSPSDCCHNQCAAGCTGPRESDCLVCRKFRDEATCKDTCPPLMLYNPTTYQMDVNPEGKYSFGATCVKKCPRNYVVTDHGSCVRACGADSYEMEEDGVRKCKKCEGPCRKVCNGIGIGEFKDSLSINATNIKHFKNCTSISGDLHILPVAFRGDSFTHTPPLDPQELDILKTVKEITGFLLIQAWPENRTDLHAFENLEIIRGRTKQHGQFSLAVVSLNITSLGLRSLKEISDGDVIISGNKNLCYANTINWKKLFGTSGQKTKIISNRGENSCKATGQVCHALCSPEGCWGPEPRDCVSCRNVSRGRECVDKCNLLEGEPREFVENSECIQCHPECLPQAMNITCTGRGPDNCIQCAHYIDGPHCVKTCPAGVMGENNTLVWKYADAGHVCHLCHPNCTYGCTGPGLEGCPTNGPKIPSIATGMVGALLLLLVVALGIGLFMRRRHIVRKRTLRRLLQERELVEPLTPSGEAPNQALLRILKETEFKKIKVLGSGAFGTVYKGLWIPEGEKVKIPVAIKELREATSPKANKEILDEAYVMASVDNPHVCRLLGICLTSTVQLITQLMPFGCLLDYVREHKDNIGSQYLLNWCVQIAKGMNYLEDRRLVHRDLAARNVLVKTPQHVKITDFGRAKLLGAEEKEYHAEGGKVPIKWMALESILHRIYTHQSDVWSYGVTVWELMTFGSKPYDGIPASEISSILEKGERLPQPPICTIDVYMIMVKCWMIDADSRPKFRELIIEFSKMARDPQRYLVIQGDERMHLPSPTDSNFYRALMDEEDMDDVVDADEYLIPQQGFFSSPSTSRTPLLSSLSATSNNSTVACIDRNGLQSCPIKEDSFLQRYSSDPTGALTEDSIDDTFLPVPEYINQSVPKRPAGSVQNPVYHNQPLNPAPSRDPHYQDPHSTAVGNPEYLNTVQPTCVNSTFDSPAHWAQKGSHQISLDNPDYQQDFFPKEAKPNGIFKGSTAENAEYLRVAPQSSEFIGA
Sequence of EGFR L850R, T790M (P00533 whole entry T790M/L858R, form open): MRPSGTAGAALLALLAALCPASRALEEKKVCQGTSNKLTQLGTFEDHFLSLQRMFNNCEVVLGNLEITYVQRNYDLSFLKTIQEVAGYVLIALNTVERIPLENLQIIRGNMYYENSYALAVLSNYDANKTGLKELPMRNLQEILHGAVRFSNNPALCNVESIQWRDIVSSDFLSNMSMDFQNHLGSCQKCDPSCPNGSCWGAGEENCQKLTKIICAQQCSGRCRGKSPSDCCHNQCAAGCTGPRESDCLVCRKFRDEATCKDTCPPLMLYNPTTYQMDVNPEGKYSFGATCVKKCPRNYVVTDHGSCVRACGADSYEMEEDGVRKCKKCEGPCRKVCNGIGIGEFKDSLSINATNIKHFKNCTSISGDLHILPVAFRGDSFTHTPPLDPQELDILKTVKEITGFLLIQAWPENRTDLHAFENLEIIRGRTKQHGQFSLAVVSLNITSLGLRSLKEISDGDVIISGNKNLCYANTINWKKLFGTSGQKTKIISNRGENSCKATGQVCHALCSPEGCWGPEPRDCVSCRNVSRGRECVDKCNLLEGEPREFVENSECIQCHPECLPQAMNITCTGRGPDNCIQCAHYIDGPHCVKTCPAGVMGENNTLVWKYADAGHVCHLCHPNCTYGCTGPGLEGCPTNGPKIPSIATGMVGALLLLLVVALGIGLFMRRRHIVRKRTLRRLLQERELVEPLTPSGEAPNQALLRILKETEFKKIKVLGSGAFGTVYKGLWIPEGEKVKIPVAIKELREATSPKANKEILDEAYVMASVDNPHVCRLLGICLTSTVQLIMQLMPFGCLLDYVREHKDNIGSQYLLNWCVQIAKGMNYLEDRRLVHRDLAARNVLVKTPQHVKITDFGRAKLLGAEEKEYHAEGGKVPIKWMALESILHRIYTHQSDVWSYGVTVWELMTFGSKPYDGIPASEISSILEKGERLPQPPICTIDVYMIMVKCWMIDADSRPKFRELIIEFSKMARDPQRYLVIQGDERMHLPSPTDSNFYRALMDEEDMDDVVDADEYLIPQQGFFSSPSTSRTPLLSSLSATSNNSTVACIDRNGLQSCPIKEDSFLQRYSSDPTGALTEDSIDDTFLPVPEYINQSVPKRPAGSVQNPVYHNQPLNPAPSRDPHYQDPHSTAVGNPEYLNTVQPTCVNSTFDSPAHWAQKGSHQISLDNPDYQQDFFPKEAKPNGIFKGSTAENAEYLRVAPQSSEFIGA

Turning to `Nc1ncnc2c1c(-c1ccc(Oc3ccccc3)cc1)nn2[C@@H]1CCCN(S(=O)(=O)c2c(F)c(F)c(F)c(F)c2F)C1` [Compound 5-1, (R)-1-(1-((perfluorophenyl)sulfonyl)piperidin-3-yl)-3-(4-phenoxyphenyl)-1H-pyrazolo[3,4-d]pyrimidin-4-amine], the IC50 (commonly the concentration needed to halve the response being measured) in test [1] is 10 to 100 nM; in test [3] (TABLE 9) it was 1610 nM; in [3] (Table 14, RL human non-Hodgkin's lymphoma B cell line), 2740 nM; in [4] it was 6200 nM; in test [5], 0.1 to 10 nM; in test [6], 10 to 300 nM. Further, the concentration for half-maximal inhibition (IC50) in test [7] was in the range of 10 to 300 nM; in [8], 100 to 1000 nM; in test [9] it was 0.1 to 10 nM; in [10], 100 to 1000 nM; in [11], 10 to 100 nM; in test [12], 100 to 1000 nM. Moreover, the IC50 in [13], in test [14], in [15], in [16], in test [17] and in test [18] was 100 to 1000 nM throughout. Further, the IC50 in [19] lay within 100 to 1000 nM. Further, in [2], the “inhibition profile of BTK by enzyme kinetic analysis” value is on record as “time-dependent inhibition”. Besides, in [3] (RL cells), the “cell-based efficacy compared with Ibrutinib” value is listed as “better cell-based efficacy”. Besides, in test [20], the “mass increase of BTK protein after incubation with compound” value was 595 Da.
